System: SEM cells
Experiment: cell viability relative to DMSO control; higher = less cytotoxic
Conditions: 48 h
Method in brief: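 Leukemia cells (NOMO1 or SEM, 500 cells/well; P12-Ichikawa, 1000 cells/well) were seeded in 5 μl in 1536-well plates after at least four passages of adaptation to each medium. They received library compounds in DMSO by pin dosing, 11 threefold points from 47 μM to 0.79 nM. Luminescence with CellTiter-Glo One was read after 48 h at 37°C. Viability is stated per plate relative to DMSO wells, with cell-free wells as background.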

[1] = HPLM + 10% dialyzed FBS, 0.000781 µM
[2] = HPLM + 10% dialyzed FBS, 0.00234 µM
[3] = HPLM + 10% dialyzed FBS, 0.00702 µM
[4] = HPLM + 10% dialyzed FBS, 0.0211 µM
[5] = HPLM + 10% dialyzed FBS, 0.0632 µM
[6] = HPLM + 10% dialyzed FBS, 0.19 µM
[7] = HPLM + 10% dialyzed FBS, 0.569 µM
[8] = HPLM + 10% dialyzed FBS, 1.71 µM
[9] = HPLM + 10% dialyzed FBS, 5.12 µM
[10] = HPLM + 10% dialyzed FBS, 15.4 µM
[11] = HPLM + 10% dialyzed FBS, 46.1 µM
[12] = RPMI 5 mM glucose + 10% FBS, 0.000781 µM
[13] = RPMI 5 mM glucose + 10% FBS, 0.00234 µM
[14] = RPMI 5 mM glucose + 10% FBS, 0.00702 µM
[15] = RPMI 5 mM glucose + 10% FBS, 0.0211 µM
[16] = RPMI 5 mM glucose + 10% FBS, 0.0632 µM
[17] = RPMI 5 mM glucose + 10% FBS, 0.19 µM
[18] = RPMI 5 mM glucose + 10% FBS, 0.569 µM
[19] = RPMI 5 mM glucose + 10% FBS, 1.71 µM
[20] = RPMI 5 mM glucose + 10% FBS, 5.12 µM
[21] = RPMI 5 mM glucose + 10% FBS, 15.4 µM
[22] = RPMI 5 mM glucose + 10% FBS, 46.1 µM
[23] = RPMI 5 mM glucose + 10% dialyzed FBS, 0.000781 µM
[24] = RPMI 5 mM glucose + 10% dialyzed FBS, 0.00234 µM
[25] = RPMI 5 mM glucose + 10% dialyzed FBS, 0.00702 µM
[26] = RPMI 5 mM glucose + 10% dialyzed FBS, 0.0211 µM
[27] = RPMI 5 mM glucose + 10% dialyzed FBS, 0.0632 µM
[28] = RPMI 5 mM glucose + 10% dialyzed FBS, 0.19 µM
[29] = RPMI 5 mM glucose + 10% dialyzed FBS, 0.569 µM
[30] = RPMI 5 mM glucose + 10% dialyzed FBS, 1.71 µM
[31] = RPMI 5 mM glucose + 10% dialyzed FBS, 5.12 µM
[32] = RPMI 5 mM glucose + 10% dialyzed FBS, 15.4 µM
[33] = RPMI 5 mM glucose + 10% dialyzed FBS, 46.1 µM

Compound | cell viability [1] [%] | cell viability [2] [%] | cell viability [3] [%] | cell viability [4] [%] | cell viability [5] [%] | cell viability [6] [%] | cell viability [7] [%] | cell viability [8] [%] | cell viability [9] [%] | cell viability [10] [%] | cell viability [11] [%] | cell viability [12] [%] | cell viability [13] [%] | cell viability [14] [%] | cell viability [15] [%] | cell viability [16] [%] | cell viability [17] [%] | cell viability [18] [%] | cell viability [19] [%] | cell viability [20] [%] | cell viability [21] [%] | cell viability [22] [%] | cell viability [23] [%] | cell viability [24] [%] | cell viability [25] [%] | cell viability [26] [%] | cell viability [27] [%] | cell viability [28] [%] | cell viability [29] [%] | cell viability [30] [%] | cell viability [31] [%] | cell viability [32] [%] | cell viability [33] [%]
O=C1[C@H](Cc2ccc(O)cc2)N2C(=O)CCN(C(=O)NCc3ccccc3)[C@H]2CN1Cc1cccc2ccccc12 | 51.6 | 86.6 | 103 | 93.6 | 77 | 74.3 | 77.4 | 62.8 | 64.8 | 12.3 | 51.3 | 64.9 | 108 | 99.7 | 98.1 | 76.7 | 93.6 | 86.2 | 83.9 | 78.6 | 15.2 | 65.6 | 55.1 | 101 | 94.7 | 95 | 83 | 93.3 | 74.1 | 73.8 | 73.3 | 15.3 | 63.2
S=C(NCc1ccc2c(c1)OCO2)N1CCN(c2ncnc3c2oc2ccccc23)CC1 | 116 | 120 | 123 | 100 | 129 | 23.2 | 124 | 124 | 93.7 | 79.4 | 16.7 |  |  |  |  |  |  |  |  |  |  |  | 104 | 103 | 121 | 127 | 134 | 126 | 134 | 135 | 62.9 | 64.5 | 17.5
N[S+]([O-])(=O)C1=CC=C(NC/2=C/C(=O)C3=CC=CC=C3C2=O)C=C1 | 97.3 | 106 | 109 | 108 | 115 | 110 | 123 | 110 | 82.6 | 97.8 | 71.3 | 96.2 | 103 | 99.4 | 98.6 | 87.5 | 83.9 | 92.2 | 92.5 | 53.4 | 57.2 | 46.3 | 122 | 74.4 | 108 | 105 | 106 | 120 | 103 | 108 | 71.3 | 85.3 | 50.7
CNC(=O)c1ccc2cc(C3(O)CCn4cncc43)ccc2c1 (stereo not drawn) | 128 | 119 | 103 | 125 | 125 | 113 | 108 | 107 | 106 | 123 | 107 |  |  |  |  |  |  |  |  |  |  |  |  |  |  |  |  |  |  |  |  |  | 
CC(C)N[C@@H]1CCn2c(=O)[nH]c3cccc(c32)[C@H]1O | 107 | 119 | 101 | 104 | 112 | 108 | 120 | 112 | 122 | 122 | 100 |  |  |  |  |  |  |  |  |  |  |  | 102 | 112 | 113 | 122 | 125 | 123 | 107 | 117 | 101 | 125 | 102
OC[C@@H](O)[C@@H](O)[C@H](O)[C@@H](O)CO | 68.4 | 85.4 | 88.2 | 105 | 98.4 | 101 | 13.8 | 60 | 103 | 97 | 105 | 102 | 105 | 103 | 99.5 | 113 | 111 | 11.4 | 110 | 112 | 116 | 108 | 104 | 97.4 | 119 | 97.3 | 108 | 124 | 12.5 | 118 | 133 | 120 | 113
CCOC(=O)c1ccc(OC(=O)CCCCCNC(=N)N)cc1 | 111 | 91.3 | 117 | 120 | 123 | 131 | 132 | 127 | 120 | 57.9 | 39.8 | 116 | 108 | 134 | 109 | 130 | 140 | 141 | 105 | 45.9 | 31.8 | 27.2 | 99.1 | 86.9 | 142 | 132 | 109 | 117 | 123 | 125 | 95.7 | 37.8 | 26.4
O=C(O)Cn1nnc(-c2cc(N3CCC(Oc4cc(F)ccc4Br)CC3)no2)n1 | 73.8 | 82.5 | 92.6 | 75.8 | 95.6 | 101 | 104 | 102 | 86.3 | 97.2 | 62.2 | 102 | 75.3 | 101 | 94.2 | 98 | 100 | 96.9 | 120 | 90.9 | 103 | 85.4 | 80.1 | 88.9 | 95.6 | 106 | 93.6 | 102 | 116 | 106 | 94 | 102 | 103
O=C(O)C1(Cc2cccc(Nc3nccs3)n2)CCC(Oc2cccc(Cl)c2F)CC1 (stereo not drawn) | 86.3 | 108 | 93.3 | 68.4 | 104 | 101 | 108 | 75.6 | 42 | 28.9 | 18.9 | 97 | 88.9 | 101 | 87.4 | 114 | 96.5 | 102 | 66.5 | 43.1 | 22.2 | 12.7 | 81.9 | 86.5 | 97.5 | 92.6 | 95.1 | 111 | 111 | 68.7 | 43.2 | 25.2 | 17.1
